{"source": "patent US20220016200A1", "about": "“PHARMACEUTICAL COMPOSITION FOR THE TREATMENT OF CYSTIC FIBROSIS” (GALENUS G.H. AG, priority 2018, published 2022)", "key": {"S. maltophilia 1221783": {"tested_on": "S. maltophilia 1221783", "test": "Checkerboard fusidic acid (FD) and colistin sulfate (CS), MIC/FIC", "type": "cell-based, Stenotrophomonas maltophilia", "settings": "agent alone, CAMHB, 1*10^6 CFU/ml, 24 h", "description": "Checkerboard assays between fusidic acid (FD) and colistin sulfate (CS) with a bacterial load 5(1-10)*10^5 CFU/ml in cationic adapted Mueller Hinton broth (CAMHB). • a. Antimicrobial stock solutions were prepared using sterile distilled water; • b. CS was added along the ordinate; FD was added along the abscissa to 96 well, flat bottom, polystyrene panels with no treatment. Colistin alone was tested in triplicates; • c. Serial 2-fold dilutions starting with 640 […] CS and 640 μg/ml FD were made; 15 μl volume of the serial dilutions were added for each agent to the appropriate wells—final volume at 30 μl; • d. For each agent tested alone an additional 15 μl media was added to the well. 30 μl were added in control wells where none of the agent was tested. […] Turbidity at OD600 is determined with a plate photometer • i. […] Determination of the fractional inhibitory concentration (FIC) index and fractional bactericidal concentration (FBC) index and characterization of antimicrobial interactions was assessed; […]\n(§1) Interactive categories were calculated from checkerboard analysis using MIC results from testing each agent alone and MIC results from the combination wells adjacent to the wells with growth in them.\nDetermination of the fractional inhibitory concentration (FIC) index and fractional bactericidal concentration (FBC) index and characterization of antimicrobial interactions was assessed: […]"}, "A. nosocomialis 1461911 [1]": {"tested_on": "A. nosocomialis 1461911", "test": "Checkerboard fusidic acid (FD) and colistin sulfate (CS), MIC/FIC and MBC/FBC", "type": "cell-based, Acinetobacter nosocomialis", "description": "(§2) Checkerboard assays between fusidic acid (FD) and colistin sulfate (CS) with a bacterial load 5(1-10)*10^5 CFU/ml in cationic adapted Mueller Hinton broth (CAMHB). • a. Antimicrobial stock solutions were prepared using sterile distilled water; • b. CS was added along the ordinate; FD was added along the abscissa to 96 well, flat bottom, polystyrene panels with no treatment. Colistin alone was tested in triplicates; • c. Serial 2-fold dilutions starting with 640 […] CS and 640 μg/ml FD were made; 15 μl volume of the serial dilutions were added for each agent to the appropriate wells—final volume at 30 μl; • d. For each agent tested alone an additional 15 μl media was added to the well. 30 μl were added in control wells where none of the agent was tested. The negative control well contains 150 μl media without any additions; • e. From an overnight bacterial culture in tryptic soy broth, 100 μL was added to 10 mL of fresh tryptic soy broth. This was then incubated at 37° C. for 1.5 hour at 180 rpm; • f. Bacteria in 120 μl CAMHB were added to each well (end concentration 5(1-10)*10^5 CFU/ml); • g. Plates were incubated at 37° C. in an ambient air incubator for 24 h • h. Turbidity at OD600 is determined with a plate photometer • i. By using a one-time inoculator 3 μl from each well of the 96-well plate were transferred to three blood agar plates. The plates were incubated over night at 37° C. in an ambient air incubator; • j. MIC values are defined as lowest concentration which restricts bacterial growth to OD600≤0.1; • k. MBC values were determined by visual reading the lowest concentration which inhibits 99.9% of the growth of bacteria in the wells; • l. Determination of the fractional inhibitory concentration (FIC) index and fractional bactericidal concentration (FBC) index and characterization of antimicrobial interactions was assessed;\n(§3) FIC calculation was carried out as: (MIC of drug A, tested in combination)/(MIC of drug A, tested alone)+(MIC of drug B, tested in combination)/(MIC of drug B, tested alone). FBC calculation was carried out just as well;\nas §1\n(§4) Determination of the fractional inhibitory concentration (FIC) index and fractional bactericidal concentration (FBC) index and characterization of antimicrobial interactions was assessed:\n(§5) (ii) Indifference; FIC/FBC>0.5 to <4.0\n(§6) (iii) Antagonism; FIC/FBC≥4.0\nb. Acinetobacter nosocomialis 1461911 (IHMA), colistin resistant (3xCS 4/8)"}, "S. maltophilia 1237289": {"tested_on": "S. maltophilia 1237289", "test": "Checkerboard fusidic acid (FD) and colistin sulfate (CS), MIC/FIC", "type": "cell-based, Stenotrophomonas maltophilia", "settings": "for MIC: S. maltophilia 1237289, agent alone, CAMHB, 1*10^6 CFU/ml", "description": "as §2, §3, §1, §4, §5, §6\ne. Stenotrophomonas maltophilia 1237289 (IHMA), colistin resistant (CS 2/4-4/8-8/8)"}, "A. nosocomialis 1461911 [2]": {"tested_on": "A. nosocomialis 1461911", "test": "Checkerboard colistin sulphate (CS) plus teicoplanin (TP), MIC/FIC and MBC/FBC", "type": "cell-based, Acinetobacter nosocomialis", "description": "(§7) Checkerboard analysis to determine minimal inhibitory concentration (MIC)/fractional inhibitory concentration (FIC) and minimal […] (MBC)/fractional […] (FBC) values of colistin sulphate (CS) plus teicoplanin (TP) for 6 Gram-negative strains with a bacterial load 5(1-10)*10^5 CFU/ml in a cation-adjusted Mueller-Hinton broth (CAMHB). • a. Antimicrobial stock solutions were prepared using sterile distilled water • b. CS was added along the ordinate; TP was added along the abscissa to 96 well, flat bottom, polystyrene panels with no treatment. Colistin alone was tested in triplicates. • c. Serial 2-fold dilutions starting with 640 μg/ml CS and 640 μg/ml TP were made; 15 μl volume of the serial dilutions were added for each agent to the appropriate wells; final volume at 30 μl • d. For each agent tested alone an additional 15 μl media was added to the well. 30 μl were added in control wells where none of the agent was tested. The negative control well contains 150 μl media without any additions • e. From an overnight bacterial culture in tryptic soy broth, 100 μL was added to 10 mL of fresh tryptic soy broth. This was then incubated at 37° C. for 1.5 hour at 180 rpm. • f. Bacteria in 120 μl CAMHB were added to each well (end concentration 5(1-10)*10^5 CFU/ml) • g. Plates were incubated at 37° C. in an ambient air incubator for 24 h • h. Turbidity at OD600 is determined with a plate photometer • i. By using a one-time inoculator 3 μl from each well of the 96-well plate were transferred to three blood agar plates. The plates were incubated over night at 37° C. in an ambient air incubator • j. MIC values are defined as lowest concentration which restricts bacterial growth to OD600 ≤0.1 • k. MBC values were determined by visual reading the lowest concentration which inhibits 99.9% of the growth of bacteria in the wells • l. Determination of the fractional inhibitory concentration (FIC) index and fractional bactericidal concentration (FBC) index and characterization of antimicrobial interactions was assessed […]\n(§8) FIC calculation was carried out as: (MIC of drug A, tested in combination)/(MIC of drug A, tested alone)+(MIC of drug B, tested in combination)/(MIC of drug B, tested alone). FBC calculation was carried out just as well […]\n(§9) Interactive categories were calculated from checkerboard analysis using MIC results from testing each agent alone and MIC results from the combination wells adjacent to the wells with growth in them […]\nb. Indifference; FIC/FBC>0.5 to<4.0 c. Antagonism; FIC/FBC≥4.0 b. A. nosocomialis 1461911 (IHMA), colistin resistant"}, "A. junii 1397597": {"tested_on": "A. junii 1397597", "test": "Checkerboard colistin sulphate (CS) plus teicoplanin (TP), MIC/FIC and MBC/FBC", "type": "cell-based, Acinetobacter junii", "settings": "Acinetobacter junii, 1397597; A. junii; agent alone; CAMHB, 5*10^5 CFU/ml; read-out: MBC", "description": "as §7, with “MIC values are defined as lowest concentration which restricts bacterial growth to OD600 ≤0.1 • k. MBC values were determined by visual reading the lowest concentration which inhibits 99.9% of the growth of bacteria in the wells • l.” left out\nas §9"}, "A. haemolyticus 1655843": {"tested_on": "A. haemolyticus 1655843", "test": "Checkerboard colistin sulphate (CS) plus teicoplanin (TP), MIC/FIC and MBC/FBC", "type": "cell-based, Acinetobacter haemolyticus", "settings": "agent alone, CAMHB, 5*10^5 CFU/ml; for MIC: A. haemolyticus 1655843, 24 h", "description": "as §7, §8, §9\nb. Indifference; FIC/FBC>0.5 to<4.0 c. Antagonism; FIC/FBC≥4.0 c. A. haemolyticus 1655843 (IHMA), colistin resistant"}}, "note": "Bridge positions count the residues as written; N and C are the ends. Square brackets hold non-standard residues; d marks the D form. Peptide text beside a SMILES is read from it. * marks the point of attachment. Heptanoyl(5-Me) = CCC(C)CCCC(=O)*; Dab = NCC[C@H](N)C(=O)O"}
{"compound": "CCC(C)CCCC(=O)N[C@@H](CCN)C(=O)N[C@H](C(=O)N[C@@H](CCN)C(=O)N[C@H]1CCNC(=O)[C@H]([C@@H](C)O)NC(=O)[C@H](CCN)NC(=O)[C@H](CCN)NC(=O)[C@H](CC(C)C)NC(=O)[C@@H](CC(C)C)NC(=O)[C@H](CCN)NC1=O)[C@@H](C)O", "note": "(stereo partly drawn) [CS, colistin sulphate] ({Heptanoyl(5-Me)}-[Dab]T[Dab][Dab][Dab][dL]L[Dab][Dab]T; lactam 4-C)", "values": [{"measurement": "MIC", "setting": "S. maltophilia 1221783", "result": 0.5, "unit": "mg/1l"}, {"measurement": "MIC", "setting": "A. nosocomialis 1461911 [1]; A. nosocomialis 1461911, agent alone, CAMHB, 1*10^6 CFU/ml, 24 h", "result": 4, "unit": "mg/1l"}, {"measurement": "MBC", "setting": "A. nosocomialis 1461911 [1]; Acinetobacter nosocomialis, A. nosocomialis 1461911, agent alone, CAMHB, 1*10^6 CFU/ml", "result": 8, "unit": "µg/mL"}, {"measurement": "MIC", "setting": "A. nosocomialis 1461911 [1]; organism list of Example 3, Acinetobacter nosocomialis 1461911, 3x, read-out: Colistin CS MIC", "result": 4, "unit": "µg/mL"}, {"measurement": "MIC", "setting": "S. maltophilia 1237289; 24 h", "result": 1, "unit": "mg/1l"}, {"measurement": "MIC", "setting": "S. maltophilia 1237289; after 48 h growth (values in brackets)", "result": "(4) mg/1l"}, {"measurement": "MBC", "setting": "S. maltophilia 1237289; Stenotrophomonas maltophilia, 1237289, organism list of Example 3, Stenotrophomonas maltophilia 1237289, repeated determinations", "result": 4, "unit": "µg/mL"}, {"measurement": "MIC", "setting": "A. nosocomialis 1461911 [2]; Acinetobacter nosocomialis, 1461911, colistin resistant A. nosocomialis strain 1461911 IHMA, as stated for the mouse model, read-out: MIC", "result": 4, "unit": "µg/mL"}, {"measurement": "MBC", "setting": "A. nosocomialis 1461911 [2]; Acinetobacter nosocomialis, 1461911, A. nosocomialis, agent alone, CAMHB, 5*10^5 CFU/ml, read-out: MBC", "result": 8, "unit": "µg/mL"}, {"measurement": "MBC", "setting": "A. junii 1397597", "result": 8, "unit": "µg/mL"}, {"measurement": "MIC", "setting": "A. haemolyticus 1655843", "result": ">16", "unit": "µg/mL"}, {"measurement": "MIC", "setting": "A. haemolyticus 1655843; listed as colistin", "result": "≥ 4", "unit": "µg/mL"}, {"measurement": "MBC", "setting": "A. haemolyticus 1655843; Acinetobacter haemolyticus, 1655843, A. haemolyticus, read-out: MBC", "result": "> 16", "unit": "µg/mL"}]}
